Source: the NIST ThermoML archive (doi:10.1016/j.fluid.2013.05.016)
± gives the expanded uncertainty stated by the source.

Conditions: Liquid; for mass density: 298.2 K, 101.33 kPa, Vibrating tube method; for vapor or sublimation pressure / Normal boiling temperature: Ebulliometric method (Recirculating still)

Cc1ccccc1C [1,2-dimethylbenzene]
mass density: 875.66 ± 0.24 kg/m3 | vapor or sublimation pressure (417.5 K): 101.3 ± 1.1 kPa | Normal boiling temperature: 144.4 ± 1 °C

c1ccccc1 [benzene]
mass density: 873.66 ± 0.24 kg/m3 | vapor or sublimation pressure (353.3 K): 101.3 ± 1.1 kPa | Normal boiling temperature: 80.2 ± 1 °C

CCCCCCC [heptane]
mass density: 679.52 ± 0.24 kg/m3 | vapor or sublimation pressure (371.4 K): 101.3 ± 1.1 kPa | Normal boiling temperature: 98.2 ± 1 °C

CCCCCCCCC [nonane]
mass density: 714.07 ± 0.24 kg/m3 | vapor or sublimation pressure (423.8 K): 101.3 ± 1.1 kPa | Normal boiling temperature: 150.7 ± 1 °C

Cc1ccccc1 [toluene]
mass density: 862.18 ± 0.24 kg/m3 | vapor or sublimation pressure (383.4 K): 101.3 ± 1.1 kPa | Normal boiling temperature: 110.2 ± 1 °C
